# Data as given in patent US9233978B2, “6-fused heteroaryldihydropyrimidines for the treatment and prophylaxis of hepatitis B virus infection” (Hoffmann-La Roche Inc., priority 2014, dated 2016).
# Read-outs that look alike come from different tables or passages of the source.
# Tests used:
# HBV = test: Anti-HBV activity in vitro, HepG2.2.15 cells, extracellular HBV DNA by qPCR; type: cell-based; conditions: Hepatitis B virus, HepG2.2.15, 120 h
# How it was run: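 Extracellular HBV DNA in culture supernatant was measured by qPCR after nucleic acid extraction. The supernatant came from constitutively replicating HepG2.2.15 cells exposed for five days to half-log-diluted compounds, with DMSO at 0.5% final. Cells had been plated overnight at 37 °C beforehand.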
# [1] = Cytotoxicity in HepDE19 cells (CCK-8) and selectivity index; type: cell-based; conditions: human, HepDE19 cells; CCK-8 cell viability; five days after treatment
# Source text: (§1) HepG2.2.15 and HepDE19 are stably-transfected cell lines containing the HBV genome. Both cell lines are derived from the hepatoblastoma cell line Hep G2 (American Type Culture Collection, ATCC® HB-8065™) by the published procedures described in references: MA Selles et al. Proc. Natl. Acad. Sci. USA 1987, 84, 1005-1009 and H Guo et al. Journal of Virology 2007, 81, 12472-12484, respectively. Both cell lines were maintained in Dulbecco's modified Eagle's medium (DMEM)-F12 medium supplemented with 10% fetal bovine serum, 100 U/mL penicillin, 100 μg/mL streptomycin, and 0.5 mg/mL of G418.
# (§2) HepDE19 cells were seeded into 96-well plates (5×10^3 cells per well) and treated with compounds for EC50 determination. Five days after treatment, cell viability was measured by addition of 20 μL of CCK-8 reagent. Two hours after incubation at 37° C., the absorbance at wavelengths of 450 nm and 630 nm (OD450 and OD630) was recorded by a plate reader. The concentration results in the death of 50% of the host cells (CC50) of each compound were determined.
# (§3) The relative effectiveness of the compound in inhibiting viral replication compared to inducing cell death was defined as the selectivity index (CC50 value/EC50 value). Based on CC50 and EC50 data, selectivity indexes were determined.
# HepDE19 cells = test: as above; type: cell-based; conditions: CC50 (HepDE19) value / EC50 (HepG2.2.15) value
# Source text: as §1, §2, §3
# [2] = Human microsomal metabolic stability; type: in vitro ADME; conditions: human microsomes 0.5 mg/mL, 1 μM test compound, NADPH, 37° C., pH 7.4, 0-30 minutes
# How it was run: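 1 μM compound with 0.5 mg/mL human liver microsomal protein in 100 mM phosphate pH 7.4 at 37° C, started with 1 mM NADPH or a NADPH-regenerating system. Sampled at 0–30 min, quenched in cold methanol with tolbutamide internal standard; remaining parent quantified by LC-MS/MS.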
# CYP3A4 = test: Cytochrome P450 induction screening assay, mRNA induction in human cryopreserved hepatocytes; type: in vitro ADME; conditions: CYP3A4 mRNA relative induction, 24 hours, test compound up to 10 μM
# Description: Human cryopreserved hepatocytes (Life Technologies, Carlsbad, USA) were thawed and cultured in collagen I coated 96-well plates with a density of 52,000 cells/well. After attachment, medium was changed and cells were pre-cultured overnight in hepatocyte maintenance medium (HMM; Lonza, Switzerland).
# Test compounds were dosed to the cells next morning at an indicated concentration (up to 10 μM) in HMM culture media containing gentamycin and a constant 0.1% DMSO. Similarly, dilutions of the positive inducer compounds omeprazole (prototypical inducer of human CYP1A2; final concentrations: 1 and 10 μM), phenobarbital (prototypical inducer of human CYP2B6; final concentrations: 100 and 1000 μM) and rifampicin (prototypical inducer of human CYP3A4; final concentrations: 1 and 10 μM) were prepared from 1000 fold DMSO stock solutions in HMM containing gentamycin. Medium change was then performed and cells were exposed for 24 hours to test compounds, positive inducer compounds, or vehicle (0.1% DMSO), respectively.
# At the end of the compound exposure period, medium was removed and cells lysed using 100 μL/well MagNA Pure LC RNA isolation tissue lysis buffer (Roche Diagnostics AG, Rotkreuz, Switzerland). Plates were then sealed and frozen at −80° C. until further workup.
# mRNA isolation was performed using the MagNA Pure 96 system (Roche Diagnostics AG, Rotkreuz, Switzerland) and the respective cellular RNA large volume kit (Roche Diagnostics AG, Rotkreuz, Switzerland) from thawed samples diluted 1:1 with PBS. The volume of the cell lysis and an elution volume of 100 μL were used. 20 μl of the resulting mRNA suspension was then used for reverse transcription using 20 μl of the transcript or first stand cDNA synthesis kit (Roche prime Supply, Mannheim, Germany). The resulting cDNA was diluted with 40 μl of H2O before using for qRT-PCR. qRT-PCR was performed by using the forward and the reverse primer, the corresponding UPL (all from Microsynth, Balgach, Switzerland) and the Taqman Fast advanced master mix (Applied Biosystems), on an ABI 7900 machine (Applied Biosystems).
# qRT-PCR Ct-values for the respective P450s were put into relation to the Ct-value of RN18S1 (microsynth, Balgach, Switzerland) of the same sample. Doing so, a respective Δct-value was calculated. Using the average of all Δct-values for the vehicle control samples, a ΔΔct-value was calculated for each sample (ΔΔct-value(sample)=Δct-value(sample)−average of Δct-value of all vehicle controls). The fold induction of the respective sample was calculated as 2^(−ΔΔct). The individual fold induction values were then averaged per treatment condition (usually n=3 biological replicates).
# Relative induction values to the respective positive inducer compound condition (10 μM omeprazole for CYP1A2; 1000 μM Phenobarbital for CYP2B6; 10 μM rifampicin for CYP3A4) were then calculated from the fold induction values as follows: Relative induction (%)=100×(T−V)/(P−V)
# Lysa solubility = type: physicochemical; conditions: phosphate buffer, pH 6.5, aqueous buffer, thermodynamic from solid, 0.05 M phosphate buffer (pH 6.5)
# How it was run: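 Duplicate samples dried from 10 mM DMSO stocks, taken up in 0.05 M phosphate buffer pH 6.5, stirred 1 h, shaken 2 h and left overnight. Filtrate and 1/10 dilution quantified by direct UV or HPLC-UV, in μg/mL; above 80% of the calculated maximum, reported as greater than that value.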
# [3] = HepG2.2.15 cells, HBV replication inhibited by 50%, extracellular HBV DNA by qPCR, five days after compound treatment, read-out: EC50
SMILES,EC50 (HBV) [nM],CC50 at 5 days [1] [nM],Selectivity index (CC50/EC50) (HepDE19 cells),Human Microsomal Clearance [2] [mL/min/kg],% of Positive control (10 μM Rifampicin) (CYP3A4) [%],EC50 (HBV; [3]) [nM],solubility thermodynamic (Lysa solubility) [µg/mL]
"CCOC(=O)C1=C(CN2CCN3C(=O)N(C4CC4)C[C@@H]3[C@H]2C(=O)O)NC(c2nccs2)=N[C@H]1c1cccc(F)c1Cl (single isomer, unassigned) [Example 82B]",2,> 100000,>50000,2.7,6,–,–
"COC(=O)C1=C(CN2CCN3C(=O)N(CC4(C(=O)O)CCC4)C[C@@H]3C2)NC(c2nccs2)=N[C@H]1c1ccc(F)cc1Cl [Example 59, (R)-6-[(S)-2-(1-Carboxy-cyclobutylmethyl)-3-oxo-hexahydro-imidazo[1,5-a]pyrazin-7-ylmethyl]-4-(2-chloro-4-fluoro-phenyl)-2-thiazol-2-yl-1,4-dihydro-pyrimidine-5-carboxylic acid methyl ester]",–,> 100000,>9091,2.3,2.2,11,> 685
"COC(=O)C1=C(CN2CCN3C(=O)N(CC(C)(C)C(=O)O)C[C@@H]3C2)NC(c2nccs2)=N[C@H]1c1ccc(F)c(F)c1C [Example 43, 3-[(8aS)-7-[[(4S)-4-(3,4-difluoro-2-methyl-phenyl)-5-methoxycarbonyl-2-thiazol-2-yl-1,4-dihydropyrimidin-6-yl]methyl]-3-oxo-5,6,8,8a-tetrahydro-1H-imidazo[1,5-a]pyrazin-2-yl]-2,2-dimethyl-propanoic acid]",–,–,–,3.1,0.2,6,–
"CCOC(=O)C1=C(CN2CCN3C(=O)N(c4cccc(C(=O)O)c4)C[C@@H]3C2)NC(c2nccs2)=N[C@H]1c1cccc(F)c1Cl [Example 27, (R)-6-[(S)-2-(3-Carboxy-phenyl)-3-oxo-hexahydro-imidazo[1,5-a]pyrazin-7-ylmethyl]-4-(2-chloro-3-fluoro-phenyl)-2-thiazol-2-yl-1,4-dihydro-pyrimidine-5-carboxylic acid ethyl ester]",–,–,–,–,0.2,3,–
"COC(=O)C1=C(CN2CCN3C(=O)N(c4ccc(C(=O)O)cc4)C[C@@H]3C2)NC(c2nccs2)=N[C@H]1c1ccc(F)cc1Cl [Example 25, (R)-6-[(S)-2-(4-Carboxy-phenyl)-3-oxo-hexahydro-imidazo[1,5-a]pyrazin-7-ylmethyl]-4-(2-chloro-4-fluoro-phenyl)-2-thiazol-2-yl-1,4-dihydro-pyrimidine-5-carboxylic acid methyl ester]",–,–,–,0.4,0,2,–
"COC(=O)C1=C(CN2CCN3C(=O)N(C4CC4)C[C@@H]3[C@H]2C(=O)O)NC(c2nccs2)=N[C@H]1c1ccc(F)cc1Cl (racemic) [Example 45, 7-[[(4R)-4-(2-chloro-4-fluoro-phenyl)-5-methoxycarbonyl-2-thiazol-2-yl-1,4-dihydropyrimidin-6-yl]methyl]-2-cyclopropyl-3-oxo-5,6,8,8a-tetrahydro-1H-imidazo[1,5-a]pyrazine-8-carboxylic acid]",–,–,–,–,20,26,> 690
"CCOC(=O)C1=C(CN2CCN3C(=O)N(C(C)(C)C)C[C@@H]3[C@H]2C(=O)O)NC(c2nccs2)=N[C@H]1c1cccc(F)c1Cl (single isomer, unassigned) [Example 87B]",–,> 100000,>100000,5.0,4.0,1,–
"CCOC(=O)C1=C(CN2CCN3C(=O)N(CC(C)(C)C(=O)O)C[C@@H]3C2)NC(c2nccs2)=N[C@H]1c1ccc(F)c(F)c1C [Example 22, 3-[(8aS)-7-[[(4S)-4-(3,4-difluoro-2-methyl-phenyl)-5-ethoxycarbonyl-2-thiazol-2-yl-1,4-dihydropyrimidin-6-yl]methyl]-3-oxo-5,6,8,8a-tetrahydro-1H-imidazo[1,5-a]pyrazin-2-yl]-2,2-dimethyl-propanoic acid]",–,> 100000,>34482,–,0,3,–
"COC(=O)C1=C(CN2CCN3C(=O)N(CC(C)(C)CC(=O)O)C[C@@H]3C2)NC(c2nccs2)=N[C@H]1c1ccc(F)cc1Cl [Example 55, 4-[(8aS)-7-[[(4R)-4-(2-chloro-4-fluoro-phenyl)-5-methoxycarbonyl-2-thiazol-2-yl-1,4-dihydropyrimidin-6-yl]methyl]-3-oxo-5,6,8,8a-tetrahydro-1H-imidazo[1,5-a]pyrazin-2-yl]-3,3-dimethyl-butanoic acid]",–,> 100000,>20000,–,0.1,5,470
"COC(=O)C1=C(CN2CCN3C(=O)N(C4CC4)CC3(CC(=O)O)C2)NC(c2nccs2)=N[C@H]1c1ccc(F)cc1Cl (stereo partly drawn) [Example 30, 2-[7-[[(4R)-4-(2-chloro-4-fluoro-phenyl)-5-methoxycarbonyl-2-thiazol-2-yl-1,4-dihydropyrimidin-6-yl]methyl]-2-cyclopropyl-3-oxo-1,5,6,8-tetrahydroimidazo[1,5-a]pyrazin-8a-yl]acetic acid]",–,–,–,1.7,7.3,95,610
"COC(=O)C1=C(CN2CCN3C(=O)NC[C@@H]3C2)NC(c2nccs2)=N[C@H]1c1ccc(F)cc1Cl [Example 11, Methyl (4R)-6-[[(8aR)-3-oxo-1,2,5,6,8,8a-hexahydroimidazo[1,5-a]pyrazin-7-yl]methyl]-4-(2-chloro-4-fluoro-phenyl)-2-thiazol-2-yl-1,4-dihydropyrimidine-5-carboxylate]",–,52000,30635,–,17,1,–
